Columns and labels:
T. b. brucei = conditions: cited from earlier work
[1] = tested on: L. donovani axenic amastigotes; conditions: cited from earlier work
mammalian tubulin = conditions: read-out: IC50 against mammalian tubulin; cited from earlier work
Vero cells = test: Vero cell cytotoxicity; assay type: cell-based, African green monkey; conditions: Chlorocebus sabaeus, read-out: IC50 versus Vero Cells
[2] = biological target: T1, colchicine site of mammalian tubulin (Sus scrofa, UniProt P02550+P02554); conditions: cited from earlier work
[3] = phase I and phase II clinical trials; cited from earlier work
TSU-Pr1 = test: SRB growth inhibition assay, TSU-Pr1 bladder cancer cell line; assay type: cell-based; conditions: Homo sapiens, TSU-Pr1, 96 h, read-out: Cancer cell line IC50, TSU-Pr1
PC3 = test: SRB growth inhibition assay, PC-3 prostate cancer cell line; assay type: cell-based; conditions: Homo sapiens, PC-3, 96 h, read-out: Cancer cell line IC50, PC3
MCF7 = test: SRB growth inhibition assay, MCF-7 breast cancer cell line; assay type: cell-based; conditions: Homo sapiens, MCF7, 96 h, read-out: Cancer cell line IC50, MCF7
LNCaP = test: SRB growth inhibition assay, LNCaP prostate cancer cell line; assay type: cell-based; conditions: Homo sapiens, 96 h, read-out: Cancer cell line IC50, LNCaP
HT29 = test: SRB growth inhibition assay, HT-29 colon cancer cell line; assay type: cell-based; conditions: Homo sapiens, HT-29, 96 h, read-out: Cancer cell line IC50, HT29
PPC1 = test: SRB growth inhibition assay, PPC-1 prostate cancer cell line; assay type: cell-based; conditions: Homo sapiens, PPC-1, 96 h, read-out: Cancer cell line IC50, PPC1
[4] = biological target: T1, colchicine site of mammalian tubulin; test: Competition with MTPT for the colchicine site; assay type: binding; conditions: 5 μM mammalian tubulin, 5 μM MTPT
[5] = tested on: L. donovani axenic amastigotes; assay type: cell-based; conditions: Leishmania donovani, read-out: IC50 versus L. donovani axenic amastigotes
[6] = cited from earlier work

CCCN(CCC)c1c([N+](=O)[O-])cc(S(=O)(=O)Nc2ccccc2)cc1[N+](=O)[O-] [Compound 2, N1-phenyl-3,5-dinitro-N4,N4-di-n-propylsulfanilamide]
Activity against Trypanosoma brucei bloodstream forms (in words) (T. b. brucei): mid-nanomolar activity | Activity against Leishmania donovani axenic amastigotes (in words) [1]: low micromolar activity

COc1ccc(NS(=O)(=O)c2c(F)c(F)c(F)c(F)c2F)cc1NC(N)=O [Compound 30]
IC50 (mammalian tubulin): 2100 nM

COc1cc([C@@H]2c3cc4c(cc3[C@H](O)[C@H]3COC(=O)[C@H]23)OCO4)cc(OC)c1OC [Podophyllotoxin]
IC50 (Vero cells): 50 ± 30 nM

COc1ccc(S(=O)(=O)Nc2cccnc2Nc2ccc(O)cc2)cc1 [Compound 28]
Binding site on mammalian tubulin [2]: bind to the colchicine site | IC50 (mammalian tubulin): 2200 nM | Oral bioavailability [3]: orally bioavailable

CC[C@]1(O)C[C@@H]2CN(CCc3c([nH]c4ccccc34)[C@@](C(=O)OC)(c3cc4c(cc3OC)N(C)[C@H]3[C@@](O)(C(=O)OC)[C@H](OC(C)=O)[C@]5(CC)C=CCN6CC[C@]43[C@@H]65)C2)C1 [Vinblastine]
IC50 (TSU-Pr1): 1.6 ± 0.08 nM | IC50 (PC3): 1.4 ± 0.3 nM | IC50 (MCF7): 1.3 ± 0.4 nM | IC50 (LNCaP): 3.4 ± 0.9 nM | IC50 (HT29): 2.4 ± 0.2 nM | IC50 (PPC1): 1 ± 0.4 nM

COc1ccc(CCc2cc(OC)c(OC)c(OC)c2)cc1O [Dihydrocombetastatin A4, dihydrocombretastatin A4]
Inhibition (%) of MTPT binding in presence of competitors ([4]; 2 μM competitor): 30 ± 1% | Inhibition (%) of MTPT binding in presence of competitors ([4]; 20 μM competitor): 69 ± 2% | Inhibition (%) of MTPT binding in presence of competitors ([4]; 50 μM competitor): 74 ± 2%

N=C(N)c1ccc(OCCCCCOc2ccc(C(=N)N)cc2)cc1 [Pentamidine]
IC50 [5]: 3.2 ± 1.5 µM

COc1ccc(NS(=O)(=O)c2c(F)c(F)c(F)c(F)c2F)cc1F [Compound 29]
Binding site on mammalian tubulin [2]: bind to the colchicine site | IC50 (mammalian tubulin): ~2000 nM | Toxicity in phase II clinical trials [6]: low levels of toxicity
